Source: patent publication US9724276B2, “Dental materials and method of manufacture” (Valspar Sourcing, Inc., priority 2012, dated 2017)

Test system: MCF-7, clone WS8, cells
Experiment: MCF-7 cell proliferation assay of estrogenic activity
Type: cell-based, human
Conditions: logarithmic (base 10) Relative Proliferative Effect relative to 17-beta estradiol, MCF-7 assay; values 'expected or measured'
Description: The MCF-7 assay is a useful test for assessing whether a polyhydric phenol compound is appreciably non-estrogenic. The MCF-7 assay uses MCF-7, clone WS8, cells to measure whether and to what extent a substance induces cell proliferation via estrogen receptor (ER)-mediated pathways. The method is described in “Test Method Nomination: MCF-7 Cell Proliferation Assay of Estrogenic Activity” submitted for validation by CertiChem, Inc. to the National Toxicology Program Interagency Center for the Evaluation of Alternative Toxicological Methods (NICEATM) on Jan. 19, 2006 (available online at iccvam.niehs.nih gov/methods/endocrine/endodocs/SubmDoc.pdf).
A brief summary of the method of the aforementioned MCF-7 assay is provided below. MCF-7, clone WS8, cells are maintained at 37° C. in RMPI (or Roswell Park Memorial Institute medium) containing Phenol Red (e.g., GIBCO Catalog Number 11875119) and supplemented with the indicated additives for routine culture. An aliquot of cells maintained at 37° C. are grown for two days in phenol-free media containing 5% charcoal stripped fetal bovine serum in a 25 cm^2 tissue culture flask. Using a robotic dispenser such as an EPMOTION™ 5070 unit from Eppendorf AG, MCF-7 cells are seeded at 400 cells per well in 0.2 ml of hormone-free culture medium in Corning 96-well plates. The cells are adapted for 3 days in the hormone-free culture medium prior to adding the chemical to be assayed for estrogenic activity. The media containing the test chemical is replaced daily for 6 days. At the end of a 7 day exposure to the test chemical, the media is removed, the wells are washed once with 0.2 ml of HBSS (Hanks' Balanced Salt Solution), and then assayed to quantify amounts of DNA per well using a micro-plate modification of the Burton diphenylamine (DPA) assay, which is used to calculate the level of cell proliferation. […]

| Structure (SMILES) | Log RPE |
| --- | --- |
| O=S(=O)(c1ccc(O)cc1)c1ccc(O)cc1 [Bisphenol S] | −2 |
| C[C@]12CC[C@@H]3c4ccc(O)cc4CC[C@H]3[C@@H]1CC[C@@H]2O [17β-estradiol] | 2.00 |
| Oc1ccc(Cc2ccc(O)cc2)cc1 [Bisphenol F] | −2 |

Molecular target: T1, human estrogen receptor (Homo sapiens, UniProt P03372)
T1 sequence (P03372 1-595): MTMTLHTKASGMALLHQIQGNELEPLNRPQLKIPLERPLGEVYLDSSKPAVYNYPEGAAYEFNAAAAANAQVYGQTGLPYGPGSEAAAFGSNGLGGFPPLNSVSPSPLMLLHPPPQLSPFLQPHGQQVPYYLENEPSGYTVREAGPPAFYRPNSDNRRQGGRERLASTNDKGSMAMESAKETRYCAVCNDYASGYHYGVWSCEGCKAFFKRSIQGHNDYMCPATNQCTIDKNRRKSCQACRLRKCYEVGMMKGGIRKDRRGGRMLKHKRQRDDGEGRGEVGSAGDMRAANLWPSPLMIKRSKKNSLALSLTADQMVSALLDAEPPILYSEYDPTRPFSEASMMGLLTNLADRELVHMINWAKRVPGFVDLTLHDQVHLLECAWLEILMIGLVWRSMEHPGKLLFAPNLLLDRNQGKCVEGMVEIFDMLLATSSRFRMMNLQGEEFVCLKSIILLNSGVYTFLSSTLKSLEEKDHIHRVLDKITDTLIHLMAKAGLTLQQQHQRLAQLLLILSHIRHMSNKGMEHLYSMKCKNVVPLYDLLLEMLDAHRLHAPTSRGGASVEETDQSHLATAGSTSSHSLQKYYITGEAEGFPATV
Experiment: suitable in vitro assay of estrogenic activity whose results correlate with the MCF-7 assay (outside toxicology laboratory)
Conditions: in vitro assay correlated to MCF-7 assay through common reference compounds
Method: The polyhydric phenols used to make the diglycidyl ethers of each of Runs I-III were assayed for estrogenic activity by an outside toxicology laboratory using a suitable assay whose results are known to be directly correlatable to the MCF-7 assay based on common reference compounds.

| Structure (SMILES) | estrogenic activity |
| --- | --- |
| CC(C)(C)c1cc(Cc2cc(C(C)(C)C)c(O)c(C(C)(C)C)c2)cc(C(C)(C)C)c1O [Structure 8, 4,4′-methylenebis(2,6-di-t-butylphenol)] | do not exhibit appreciable estrogenic activity |
| CC(C)(C)c1cc(O)c(C(C)(C)C)cc1O [Structure 12, 2,5-di-t-butylhydroquinone] | do not exhibit appreciable estrogenic activity |
| Cc1cc(Cc2cc(C)c(O)c(C)c2)cc(C)c1O [Structure 6, 4,4′-methylenebis(2,6-dimethylphenol)] | do not exhibit appreciable estrogenic activity |
| Cc1cc(Cc2cc(C)cc(C(C)(C)C)c2O)c(O)c(C(C)(C)C)c1 [Structure 9] | do not exhibit appreciable estrogenic activity |
| CCCC(c1cc(C(C)(C)C)c(O)cc1C)c1cc(C(C)(C)C)c(O)cc1C [Structure 7, 4,4′-butylidenebis(2-t-butyl-5-methylphenol)] | do not exhibit appreciable estrogenic activity |

Test system: not listed separately
Experiment: genotoxicity assays (e.g., Ames II assay)
Conditions: not given

| Structure (SMILES) | genotoxicity |
| --- | --- |
| CC(C)(C)c1cc(Cc2cc(C(C)(C)C)c(OCC3CO3)c(C(C)(C)C)c2)cc(C(C)(C)C)c1OCC1CO1 (stereo not drawn) [Diglycidyl ether of 4,4′-methylenebis(2,6-di-tert-butylphenol)] | non-genotoxic |
